Series [1] has as its system melanoma B16-F10. The series can be described thus: Subcutaneous B16-F10 melanoma, manganese colloid with cyclophosphamide. It counts as in vivo, mice. The note with it: 14 days after inoculation; colloid 5 mg/kg i.m. every two days; CTX 140 mg/kg i.p. day 6, 9, 12.
For series [2], the system named is mouse peritoneal macrophages. The class given is cell-based.
The subject of series [3] is inflammatory factors IL-1β and IL-18. The class given is cell-based, mouse.
The subject of series [4] is IL-1β. The series can be described thus: Induction of inflammatory factor IL-1β by manganese products. It counts as cell-based. The conditions noted are these: FIG. 2B. The procedure: Each of the products was tested.
The conditions of series [5]: 20 μg manganese i.m. in 100 μl saline.
Description: The mice were randomly divided into 2 groups according to body weight, namely: intramuscular injection of MnCl2 solution group (20 μg MnCl2 dissolved in 100 μl saline), and intramuscular injection of manganese colloid group (20 μg manganese colloid suspended in 100 μl saline). 20 μg here refers to the mass of the element manganese. At different times after the injection, 0.1 g of the muscle at the injection site was taken, digested with a microwave digestion apparatus, and then the content of the element manganese was determined by ICP-MS (Thermo X SERIES II).
Series [6] relates to influenza virus. The arrangement: species or system mice. The conditions noted are these: mouse, in vivo.
For series [7], the system named is B16-OVA tumor. The series can be described thus: B16-OVA tail vein tumor metastasis model after immunization. The note with it: 21 days after tumor injection. It counts as in vivo, mice. The procedure:
Mn2OHPO4 colloid and aluminum adjuvant were mixed respectively with antigen OVA to immunize mice. Immunizations were performed 3 times with once every 7 days to activate the immune response in the body. B16-OVA tumor was injected into the tail vein to establish a tumor metastasis model. The mice were sacrificed 21 days after the tumor injection, and the lung tissues were taken out.

The subject of series [8] is B16/OVA melanoma cells. The series can be described thus: B16/OVA melanoma subcutaneous in situ tumor model after immunization. It counts as in vivo, mice. The conditions noted are these: 21 days after tumor inoculation; immunized three times with OVA ± adjuvant. From the text:
The mice were randomly divided into 4 groups according to body weight: blank control group (con), OVA control group, OVA and manganese colloid group (OVA+Mn), and OVA and aluminum adjuvant group (OVA+Al). After immunizing the mice three times according to the experimental scheme (once every 7 days), the B16/OVA melanoma cells were subcutaneously inoculated to establish an in situ tumor model. […] 21 days after tumor inoculation, the average tumor size of mice in the control group was 1906 mm^3, the average tumor size of mice in the OVA group was 925.5 mm^3, the average tumor size of mice immunized with manganese colloid was 222.9 mm^3, and the average tumor size of mice in the aluminum adjuvant group was 1946 mm^3, as shown in FIG. 14B.

`O=P1(N(CCCl)CCCl)NCCCO1` (stereo not shown) [CTX, cyclophosphamide monohydrate] returned a tumor size in series [1] of 393.9 mm^3.
With `[Cl][Mn][Cl]` [MnCl2], the “expression of type I interferon (ISG54, Viperin, total type I interferon in supernatant)” value in series [2] is given as “can activate the expression of type I interferon”. Further, in series [3], the “ability to activate inflammatory factors (caspase 1 and IL-1β cleavage, IL-1β and IL-18)” value is given as “significantly stronger than that of aluminum adjuvant”; the “ability to activate inflammatory factors in NLRP3 knockout cells” value is reported as “significantly lowered”. Moreover, the “ability to activate inflammatory factors, MnCl2 compared with manganese colloid” value in series [4] was “have the same ability to activate inflammatory factors”. Besides, the “retention at the injection site (manganese content in muscle)” value in series [5] is on record as “quickly metabolized”.
Turning to CTB, in series [6], the “inflammation in the lungs” value is listed as “a small amount of inflammation in lung” and the “weight of the mice after influenza infection” value is “recovered slightly after a slight weight loss”.

B1: OVA: ovalbumin antigen (InvivoGen, #vac-pova), given without adjuvant (protein, UniProt P01012 2-386, looked up)
Ovalbumin: GSIGAASMEFCFDVFKELKVHHANENIFYCPIAIMSALAMVYLGAKDSTRTQINKVVRFDKLPGFGDSIEAQCGTSVNVHSSLRDILNQITKPNDVYSFSLASRLYAEERYPILPEYLQCVKELYRGGLEPINFQTAADQARELINSWVESQTNGIIRNVLQPSSVDSQTAMVLVNAIVFKGLWEKAFKDEDTQAMPFRVTEQESKPVQMMYQIGLFRVASMASEKMKILELPFASGTMSMLVLLPDEVSGLEQLESIINFEKLTEWTSSNVMEERKIKVYLPRMKMEEKYNLTSVLMAMGITDVFSSSANLSGISSAESLKISQAVHAAHAEINEAGREVVGSAEAGVDAASVSEEFRADHPFLFCIKHIATNAVLFFGRCVSP
In the case of B1, the “melanomas on the lungs” value in series [7] is reported as “a certain number of melanomas”. For the same molecule, the average tumor size in series [8] came to 925.5 mm^3.

The values above are taken from patent publication US12324814B2, “Manganese composition for enhancing immunity” (PEKING UNIVERSITY, priority 2019, dated 2025).
